Measurements from patent US20250230193A1, “CYCLIC COMPOUND HAVING SELECTIVE KRAS INHIBITORY EFFECT ON HRAS AND NRAS” (CHUGAI SEIYAKU KABUSHIKI KAISHA, priority 2022, published 2025).
Where a SMILES comes first, the peptide text is derived from it. Bridges are numbered along the chain shown (N, C = ends). [ ]: non-standard residue; d: D form. The star is where a group is joined. hPhe(3-Cl-4-CF3) = N[C@@H](CCc1ccc(C(F)(F)F)c(Cl)c1)C(=O)O; NPrPhe(4-CF3) = CCCN[C@@H](Cc1ccc(C(F)(F)F)cc1)C(=O)O; NMeGly(cPent) = CN[C@H](C(=O)O)C1CCCC1; NMeD = CN[C@@H](CC(=O)O)C(=O)O; NMeL = CN[C@@H](CC(C)C)C(=O)O; Morpholide = C1CN(*)CCO1; Ac5c = NC1(C(=O)O)CCCC1; Aze = O=C(O)[C@@H]1CCN1; Abu = CC[C@H](N)C(=O)O; Sar = CNCC(=O)O

Tests used:
[1] = biological target: GDP-bound NRAS wild-type protein (Homo sapiens, UniProt P01111); experiment: Binding to NRAS by surface plasmon resonance (SPR), Single Cycle Kinetics; details: for NRAS/KRAS (ratio of KD value with respect to GDP-bound NRAS wild-type protein to KD value with respect to KRAS): class symbols
[2] = biological target: GDP-bound HRAS wild-type protein (Homo sapiens, UniProt P01112); experiment: Binding to HRAS by surface plasmon resonance (SPR), Single Cycle Kinetics; details: for HRAS/KRAS (ratio of KD value with respect to GDP-bound HRAS wild-type protein to KD value with respect to KRAS): class symbols
[3] = KD ratio, GDP-bound NRAS wild-type vs GDP-bound KRAS wild-type, SPR
[4] = KD ratio, GDP-bound HRAS wild-type vs GDP-bound KRAS wild-type, SPR

GDP-bound HRAS wild-type protein, sequence (P01112 whole entry): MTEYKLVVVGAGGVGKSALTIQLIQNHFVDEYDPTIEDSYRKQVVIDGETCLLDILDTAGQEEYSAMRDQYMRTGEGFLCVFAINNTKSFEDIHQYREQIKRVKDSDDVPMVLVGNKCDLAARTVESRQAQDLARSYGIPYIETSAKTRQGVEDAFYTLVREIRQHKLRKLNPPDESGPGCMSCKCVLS
GDP-bound NRAS wild-type protein, sequence (P01111 whole entry): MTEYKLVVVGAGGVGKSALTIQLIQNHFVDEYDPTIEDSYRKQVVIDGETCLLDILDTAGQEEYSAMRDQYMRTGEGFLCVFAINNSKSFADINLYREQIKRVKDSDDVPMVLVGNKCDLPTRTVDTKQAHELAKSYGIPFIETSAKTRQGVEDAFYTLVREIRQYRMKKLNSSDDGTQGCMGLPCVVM

Row | SMILES | NRAS/KRAS (ratio of KD value with respect to GDP-bound NRAS wild-type protein to KD value with respect to KRAS) ([1]; KD ratio NRAS/KRAS) | HRAS/KRAS (ratio of KD value with respect to GDP-bound HRAS wild-type protein to KD value with respect to KRAS) ([2]; KD ratio HRAS/KRAS) | NRAS/KRAS (ratio of KD value for NRAS to KD value for KRAS) [1, 3] | HRAS/KRAS (ratio of KD value for HRAS to KD value for KRAS) [2, 4] | further results
1 | CCC[C@H]1C(=O)N[C@@H]([C@@H](C)CC)C(=O)N2C[C@@H](OC)C[C@H]2C(=O)N(C)[C@H]2C/C=C\CCN(C2=O)[C@@H](Cc2ccc(C)cc2)C(=O)N(C)CC(=O)N[C@@H](CCc2cc(F)c(C(F)(F)F)c(F)c2)C(=O)N2C[C@H](OCC)C[C@H]2C(=O)NC2(CC(C)(C)C2)C(=O)N(C)[C@@H](C2CCCC2)C(=O)N(C)[C@H](C(=O)N(C)C)CC(=O)N1C [PP2556] | A (a compound having 10 or more and less than 20 is denoted as A) | B (a compound having 3 or more and less than 10 is denoted as B) | – | – | –
2 | CC[C@H](C)[C@@H]1NC(=O)[C@H](COC)N(C)C(=O)C[C@@H](C(=O)N(C)C)N(C)C(=O)[C@H](C2CCCCC2)N(C)C(=O)C2(CC(C)(C)C2)NC(=O)[C@@H]2C[C@@H](OC3CCC3)CN2C(=O)[C@H](CCc2cc(F)c(C(F)(F)F)c(F)c2)NC(=O)CN(C)C(=O)[C@H](Cc2ccc(C(F)(F)F)cc2)N2CC/C=C\C[C@@H](C2=O)N(C)C(=O)CN(C)C1=O [PP2655] | AA (a compound having 20 or more is denoted as AA) | A (a compound having 10 or more and less than 20 is denoted as A) | – | – | –
3 | CCO[C@@H]1C[C@H]2C(=O)NC3(CC(F)(F)C3)C(=O)N(C)[C@@H](C(CC)CC)C(=O)N(C)[C@H](CC)CC(=O)N(C)[C@@H](CC)C(=O)N[C@@H]([C@@H](C)CC)C(=O)N(C)CC(=O)N(C)[C@H]3C/C=C\CCN(C3=O)[C@@H](Cc3ccc(C(F)(F)F)cc3)C(=O)N(C)CC(=O)N[C@@H](CCc3cc(F)c(C(F)(F)F)c(F)c3)C(=O)N2C1 [PP1626] | – | – | A (a compound having 10 or more and less than 20 is denoted as A) | A (a compound having 10 or more and less than 20 is denoted as A) | –
4 | CCC[C@H]1C(=O)N[C@@H]([C@@H](C)CC)C(=O)N(C)CC(=O)N(C)[C@H]2C/C=C\CCN(C2=O)[C@@H](Cc2ccc(C)cc2)C(=O)N(C)CC(=O)N[C@@H](CCc2ccc(CC)c(Cl)c2)C(=O)N2C[C@H](OCC)C[C@H]2C(=O)NC2(CC(C)(C)C2)C(=O)N(C)[C@@H](C(CC)CC)C(=O)N(C)[C@H](C(=O)N(C)C)CC(=O)N1C [PP2779] | A (a compound having 10 or more and less than 20 is denoted as A) | A (a compound having 10 or more and less than 20 is denoted as A) | – | – | –
5 | CCCN1C(=O)CN(C)C(=O)[C@@H]2CCN2C(=O)[C@H](CC)NC(=O)[C@H](CC(C)C)N(C)C(=O)C[C@@H](C(=O)N2CCOCC2)N(C)C(=O)[C@H](C2CCCC2)N(C)C(=O)C2(CCCC2)NC(=O)[C@@H]2CCCN2C(=O)[C@H](CCc2ccc(C(F)(F)F)c(Cl)c2)NC(=O)CN(C)C(=O)[C@@H]1Cc1ccc(C(F)(F)F)cc1 [PP0303] ([NMeL][Abu][Aze][Sar][NPrPhe(4-CF3)][Sar][hPhe(3-Cl-4-CF3)]P[Ac5c][NMeGly(cPent)][NMeD]-Morpholide; lactam N-11) | – | – | – | – | NRAS/KRAS (ratio of KD for GDP-bound NRAS wild-type to KD for KRAS) ([1]; KD ratio NRAS/KRAS, SPR): B (a compound having 3 or more and less than 10 is denoted as B); HRAS/KRAS (ratio of KD for GDP-bound HRAS wild-type to KD for KRAS) ([2]; KD ratio HRAS/KRAS, SPR): B (a compound having 3 or more and less than 10 is denoted as B)
6 | CCO[C@@H]1C[C@H]2C(=O)NC3(CCC3)C(=O)N(C)[C@@H](C3CCCC3)C(=O)N3CCC[C@@H]3CC(=O)N(C)[C@@H](CC3CC3)C(=O)N[C@@H]([C@@H](C)CC)C(=O)N(C)CC(=O)N(C)[C@H]3C/C=C\CCN(C3=O)[C@@H](Cc3ccc(C(F)(F)F)cc3)C(=O)N(C)CC(=O)N[C@@H](CCc3ccc(C(F)(F)F)c(OC)c3)C(=O)N2C1 [PP1616] | – | – | B (a compound having 3 or more and less than 10 is denoted as B) | B (a compound having 3 or more and less than 10 is denoted as B) | –
7 | CCCN(C)C(=O)[C@@H]1CC(=O)N(C)[C@@H](C2CCC2)C(=O)N[C@@H]([C@@H](C)CC)C(=O)N(C)CC(=O)N(C)[C@H]2C/C=C\CCN(C2=O)[C@@H](Cc2ccc(C(F)(F)F)cc2)C(=O)N(C)CC(=O)N[C@@H](CCc2ccc(C(F)(F)F)c(OC)c2)C(=O)N2C[C@H](OCC)C[C@H]2C(=O)NC2(CCC2)C(=O)N(C)[C@@H](C2CCCC2)C(=O)N1C [PP2023] | – | – | A (a compound having 10 or more and less than 20 is denoted as A) | B (a compound having 3 or more and less than 10 is denoted as B) | –
8 | CC[C@H](C)[C@@H]1NC(=O)[C@H](CC(C)C)N(C)C(=O)C[C@@H](C(=O)N2CCOCC2)N(C)C(=O)[C@H](C2CCCC2)N(C)C(=O)C2(CCC2)NC(=O)[C@@H]2[C@@H](OC)CCN2C(=O)[C@H](CCc2cc(F)c(C(F)(F)F)c(F)c2)NC(=O)CN(C)C(=O)[C@H](Cc2ccc(C(F)(F)F)cc2)N2CCCCC[C@@H](C2=O)N(C)C(=O)CN(C)C1=O [PP1067] | – | – | – | – | NRAS/KRAS (ratio of KD value with respect to NRAS to KD value with respect to KRAS) [1, 3]: B (a compound having 3 or more and less than 10 is denoted as B); HRAS/KRAS (ratio of KD value with respect to HRAS to KD value with respect to KRAS) [2, 4]: B (a compound having 3 or more and less than 10 is denoted as B)
